Laboratory results published in patent publication US20150285805A1, “BIOMARKERS OF MULTIPLE MYELOMA DEVELOPMENT AND PROGRESSION” (priority 2012, published 2015).

Columns and labels:
T cells = details: cited from earlier work
[1] = cited from earlier work
MM cells = details: phosphocholine administration; cited from earlier work
[2] = test system: microvascular endothelial cell; details: in vitro; cited from earlier work
[3] = test system: myeloma patient-derived CD138 positive cells; assay: AnnexinV-PI cytometry, apoptosis/viability upon LPC supplementation; format: cell-based; details: 10 μM LPC, 24 h, vs vehicle; three patient samples
Method: (§1) FIG. 5. Effects of LPC supplementation on MM cells viability. A) Viability of myeloma cell lines MM.1S or OPM2 or three samples of myeloma patient-derived CD138 positive cells upon 24 h incubation with vehicle or 10 μM LPC, as fold change of annexinV-propidium iodide double negative cells relative to vehicle alone. B) MTT assay of OPM2 cells upon 72 h supplementation with LPC, one representative experiment (n=6). Y axis: median 570-655 optic density (O.D.); error bars: standard deviation; asterisks: p<0.05 at two-tailed t-test for paired samples.
(§2) Myeloma cell lines (OPM2 and MM.1S) were cultured in RPMI1640 media (Gibco), supplemented with glutamax (1 mM), penicillin (100 U/ml), and streptomycin (100 μg/ml). Primary MM cells were obtained by CD138 positive immunomagnetic selection (Miltenyi) from bone marrow mononuclear cells. CD138^+ cells were cultured in 10% FBS and IL-6 (2 ng/ml). Apoptosis was detected by AnnexinV-PI (BD) cytometry (AccuriC6 cytometer, analyzed with FCS-express). For MTT assays, OPM2 cells were cultured with or without 10 μM LPC and FCS, incubated with 5 mg/ml MTT (Sigma), dissolved with DMSO and measured for ABS at 570-655 nm with an ELISA reader (Biorad).

OPM2 myeloma cell line = assay: as above; format: cell-based; details: 10 μM LPC, 24 h, vs vehicle
Method: as §1, §2

MM.1S myeloma cell line = assay: as above; format: cell-based; details: 10 μM LPC, 24 h, vs vehicle
Method: as §1, §2

OPM2 cells = assay: MTT assay upon LPC supplementation; format: cell-based; details: 10 μM LPC, 72 h, with or without FCS; particularly upon serum starvation
Method: as §1, §2

Which T cell depletion (T cells; in vitro and in vivo, transplanted mice) does the source give for Nc1c(O)cccc1C(=O)CC(N)C(=O)O (stereo not shown) [3-hydroxykynurenine] here?
The T cell depletion was “depleting in vitro and in vivo T cells”.

And the mismatched allograft tolerance (T cells; mouse, in vivo)?
Its mismatched allograft tolerance is “promoting mismatched allograft tolerance”.

With CNCC(=O)O [Sarcosine, Sarcosine (N-Methylglycine)] as the compound, how does the “cancer-promoting in vitro activities” value [1] read?
The value was “induction of migration, invasiveness, and up-regulation of pathogenic receptors”.

With C[N+](C)(C)CCOP(=O)([O-])O [phosphocholine] as the compound, how does the “rescue of MM cells from the mevalonate pathway inhibitor apomine” value (MM cells) read?
The value was “can rescue MM cells”.

Which “IGF1 signaling and microvascular endothelial cell proliferation” value [2] does the source give for “C3f: fragment of the C3 complement factor, sequence SSKITHRIHWESASLLR; detected fragment HWESASLL (listed as Homo sapiens)” here?
The value was “actively modulate”.

What about the “TGFβ-1 secretion by endothelial cells” value [2] of the same compound?
Its value is “enhance TGFβ-1 secretion”.

Which “apoptosis (annexinV-propidium iodide)” value [3] does the source give for lysophosphocholines [LPC] here?
The value was “decrease apoptosis”.

And the “apoptosis (annexinV-propidium iodide)” value (OPM2 myeloma cell line)?
The value was “decrease apoptosis”.

And the “apoptosis (annexinV-propidium iodide)” value (MM.1S myeloma cell line)?
Its value is “decrease apoptosis”.

And the “viability (MTT, 570-655 O.D.)” value (OPM2 cells)?
The value was “increase viability”.
